From PubChem BioAssay (NCI)
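Results reflect a 48-hour exposure of cells in 96-well plates to compound at five concentrations. The concentration for 50% growth inhibition is given as GI50. Definition used: TGI = concentration required for complete inhibition of growth.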

Assays:
Assay in all cases: NCI-60 cell line screen, 48 h
SNB-75 CNS = test system: SNB-75 CNS
EKVX NSCLC = test system: EKVX NSCLC
MALME-3M melanoma = test system: MALME-3M melanoma
HCT-15 colon = test system: HCT-15 colon
KM12 colon = test system: KM12 colon
SK-MEL-5 melanoma = test system: SK-MEL-5 melanoma
NCI/ADR-RES ovarian = test system: NCI/ADR-RES ovarian
M14 melanoma = test system: M14 melanoma
COLO 205 colon = test system: COLO 205 colon
SK-MEL-2 melanoma = test system: SK-MEL-2 melanoma
SN12C renal = test system: SN12C renal
K-562 leukemia = test system: K-562 leukemia
786-0 renal = test system: 786-0 renal
UACC-257 melanoma = test system: UACC-257 melanoma
CCRF-CEM leukemia = test system: CCRF-CEM leukemia
MDA-MB-435 = test system: MDA-MB-435
LOX IMVI melanoma = test system: LOX IMVI melanoma
A549 NSCLC = test system: A549 NSCLC
ACHN renal = test system: ACHN renal
PC-3 prostate = test system: PC-3 prostate
SK-MEL-28 melanoma = test system: SK-MEL-28 melanoma
HS 578T breast = test system: HS 578T breast
BT-549 breast = test system: BT-549 breast
OVCAR-8 ovarian = test system: OVCAR-8 ovarian
CAKI-1 renal = test system: CAKI-1 renal
NCI-H522 lung = test system: NCI-H522 lung
UO-31 renal = test system: UO-31 renal
SR leukemia = test system: SR leukemia
SW-620 colon = test system: SW-620 colon
SK-OV-3 ovarian = test system: SK-OV-3 ovarian
NCI-H23 lung = test system: NCI-H23 lung
OVCAR-4 ovarian = test system: OVCAR-4 ovarian
SNB-19 CNS = test system: SNB-19 CNS
MDA-MB-231 breast = test system: MDA-MB-231 breast
IGROV1 ovarian = test system: IGROV1 ovarian
RXF 393 renal = test system: RXF 393 renal
HCT-116 colon = test system: HCT-116 colon
U251 CNS = test system: U251 CNS
NCI-H226 lung = test system: NCI-H226 lung
SF-539 CNS = test system: SF-539 CNS
DU-145 prostate = test system: DU-145 prostate
T-47D breast = test system: T-47D breast
A498 renal = test system: A498 renal
SF-268 CNS = test system: SF-268 CNS
HOP-62 NSCLC = test system: HOP-62 NSCLC
OVCAR-3 ovarian = test system: OVCAR-3 ovarian
MOLT-4 leukemia = test system: MOLT-4 leukemia
HCC-2998 colon = test system: HCC-2998 colon
SF-295 CNS = test system: SF-295 CNS
MCF7 breast = test system: MCF7 breast
RPMI-8226 leukemia = test system: RPMI-8226 leukemia
HT29 colon = test system: HT29 colon
UACC-62 melanoma = test system: UACC-62 melanoma
HL-60(TB) leukemia = test system: HL-60(TB) leukemia
TK-10 renal = test system: TK-10 renal
OVCAR-5 ovarian = test system: OVCAR-5 ovarian
NCI-H460 lung = test system: NCI-H460 lung
HOP-92 NSCLC = test system: HOP-92 NSCLC

SMILES: CN1C2CCC1CC(=CCOC(c1ccc(F)cc1)c1ccc(F)cc1)C2
- TGI (SNB-75 CNS): 27.1 µM
- TGI (EKVX NSCLC): 40.8 µM
- TGI (MALME-3M melanoma): 27.2 µM
- TGI (HCT-15 colon): 29.6 µM
- TGI (KM12 colon): 29.6 µM
- TGI (SK-MEL-5 melanoma): 23.2 µM
- TGI (NCI/ADR-RES ovarian): 40.1 µM
- TGI (M14 melanoma): 31.9 µM
- TGI (COLO 205 colon): 30.5 µM
- TGI (SK-MEL-2 melanoma): 39.4 µM
- TGI (SN12C renal): 33.5 µM
- TGI (K-562 leukemia): 28 µM
- TGI (786-0 renal): 27.9 µM
- TGI (UACC-257 melanoma): 31.7 µM
- TGI (CCRF-CEM leukemia): > 100 µM
- TGI (MDA-MB-435): 25.7 µM
- TGI (LOX IMVI melanoma): 31.5 µM
- TGI (A549 NSCLC): 32.4 µM
- TGI (ACHN renal): 31.8 µM
- TGI (PC-3 prostate): 33.1 µM
- TGI (SK-MEL-28 melanoma): 47.9 µM
- TGI (HS 578T breast): 27.5 µM
- TGI (BT-549 breast): 30.1 µM
- TGI (OVCAR-8 ovarian): 32 µM
- TGI (CAKI-1 renal): 30.6 µM
- TGI (NCI-H522 lung): 24.7 µM
- TGI (UO-31 renal): 21.8 µM
- TGI (SR leukemia): 37.3 µM
- TGI (SW-620 colon): > 100 µM
- TGI (SK-OV-3 ovarian): 31.3 µM
- TGI (NCI-H23 lung): 32 µM
- TGI (OVCAR-4 ovarian): 31.9 µM
- TGI (SNB-19 CNS): 37.8 µM
- TGI (MDA-MB-231 breast): 37.1 µM
- TGI (IGROV1 ovarian): 30.1 µM
- TGI (RXF 393 renal): 28.2 µM
- TGI (HCT-116 colon): 24.6 µM
- TGI (U251 CNS): 33.2 µM
- TGI (NCI-H226 lung): 37.4 µM
- TGI (SF-539 CNS): 31.9 µM
- TGI (DU-145 prostate): 30.5 µM
- TGI (T-47D breast): 35.1 µM
- TGI (A498 renal): 28.7 µM
- TGI (SF-268 CNS): 27 µM
- TGI (HOP-62 NSCLC): 32.2 µM
- TGI (OVCAR-3 ovarian): 31.3 µM
- TGI (MOLT-4 leukemia): 42.3 µM
- TGI (HCC-2998 colon): 13.3 µM
- TGI (SF-295 CNS): 30.9 µM
- TGI (MCF7 breast): 34.6 µM
- TGI (RPMI-8226 leukemia): 38 µM
- TGI (HT29 colon): 19.9 µM
- TGI (UACC-62 melanoma): 29.5 µM
- TGI (HL-60(TB) leukemia): 43.5 µM
- TGI (TK-10 renal): 28.5 µM
- TGI (OVCAR-5 ovarian): 36 µM
- TGI (NCI-H460 lung): 35.3 µM

SMILES: C[C@@H]1CC[C@@H]2[C@@H]1[C@H](OC(=O)/C=C/c1ccccc1)[C@]1(C3CCCCC3)C[C@@H](OC(=O)CO)[C@@]2(C)O1
- GI50 (SNB-75 CNS): 1090 nM
- TGI (SNB-75 CNS): 14.7 µM
- GI50 (EKVX NSCLC): 3.47 µM
- TGI (EKVX NSCLC): 15.6 µM
- GI50 (MALME-3M melanoma): 2480 nM
- TGI (MALME-3M melanoma): 7.21 µM
- GI50 (HCT-15 colon): 2440 nM
- TGI (HCT-15 colon): 7.93 µM
- GI50 (KM12 colon): 3.1 µM
- TGI (KM12 colon): 10.8 µM
- GI50 (SK-MEL-5 melanoma): 2360 nM
- TGI (SK-MEL-5 melanoma): 6.11 µM
- GI50 (NCI/ADR-RES ovarian): 515 nM
- TGI (NCI/ADR-RES ovarian): 5.2 µM
- GI50 (M14 melanoma): 3.57 µM
- TGI (M14 melanoma): 15.2 µM
- GI50 (COLO 205 colon): 3.12 µM
- TGI (COLO 205 colon): 11.1 µM
- GI50 (SK-MEL-2 melanoma): 4.03 µM
- TGI (SK-MEL-2 melanoma): 16.1 µM
- GI50 (SN12C renal): 86 nM
- TGI (SN12C renal): 3.56 µM
- GI50 (K-562 leukemia): 3.88 µM
- TGI (K-562 leukemia): 14.6 µM
- GI50 (786-0 renal): 1170 nM
- TGI (786-0 renal): 3.07 µM
- GI50 (UACC-257 melanoma): 5.1 µM
- TGI (UACC-257 melanoma): 18.7 µM
- GI50 (CCRF-CEM leukemia): 4.45 µM
- TGI (CCRF-CEM leukemia): 14.1 µM
- GI50 (MDA-MB-435): 2990 nM
- TGI (MDA-MB-435): 11 µM
- GI50 (LOX IMVI melanoma): 1670 nM
- TGI (LOX IMVI melanoma): 3.27 µM
- GI50 (A549 NSCLC): 4.03 µM
- TGI (A549 NSCLC): 14.1 µM
- GI50 (PC-3 prostate): 3.04 µM
- TGI (PC-3 prostate): 11.3 µM
- GI50 (SK-MEL-28 melanoma): 3.59 µM
- TGI (SK-MEL-28 melanoma): 15.1 µM
- GI50 (HS 578T breast): 23.7 nM
- TGI (HS 578T breast): 0.0978 µM
- GI50 (BT-549 breast): 33.7 nM
- TGI (BT-549 breast): 0.729 µM
- GI50 (OVCAR-8 ovarian): 513 nM
- TGI (OVCAR-8 ovarian): 13 µM
- GI50 (CAKI-1 renal): 34.7 nM
- TGI (CAKI-1 renal): 11 µM
- GI50 (NCI-H522 lung): 2400 nM
- TGI (NCI-H522 lung): 6.75 µM
- GI50 (UO-31 renal): 15 nM
- TGI (UO-31 renal): 0.03 µM
- GI50 (SR leukemia): 2600 nM
- TGI (SR leukemia): 6.9 µM
- GI50 (SW-620 colon): 4.43 µM
- TGI (SW-620 colon): 16.9 µM
- GI50 (SK-OV-3 ovarian): 6.71 µM
- TGI (SK-OV-3 ovarian): 20.2 µM
- GI50 (NCI-H23 lung): 3.88 µM
- TGI (NCI-H23 lung): 14.8 µM
- GI50 (OVCAR-4 ovarian): 3.92 µM
- TGI (OVCAR-4 ovarian): 16 µM
- GI50 (SNB-19 CNS): 3.94 µM
- TGI (SNB-19 CNS): 13.6 µM
- GI50 (MDA-MB-231 breast): 2470 nM
- TGI (MDA-MB-231 breast): 6.61 µM
- GI50 (IGROV1 ovarian): 3.84 µM
- TGI (IGROV1 ovarian): 15 µM
- GI50 (RXF 393 renal): 77.9 nM
- TGI (RXF 393 renal): 3.16 µM
- GI50 (HCT-116 colon): 1920 nM
- TGI (HCT-116 colon): 4.13 µM
- GI50 (U251 CNS): 2700 nM
- TGI (U251 CNS): 8.26 µM
- GI50 (NCI-H226 lung): 2060 nM
- TGI (NCI-H226 lung): 5.56 µM
- GI50 (SF-539 CNS): 5.48 µM
- TGI (SF-539 CNS): 18.5 µM
- GI50 (DU-145 prostate): 3.99 µM
- TGI (DU-145 prostate): 14.7 µM
- GI50 (T-47D breast): 2640 nM
- TGI (T-47D breast): 10.7 µM
- GI50 (A498 renal): 19.1 nM
- TGI (A498 renal): 0.0572 µM
- GI50 (SF-268 CNS): 1480 nM
- TGI (SF-268 CNS): 9.86 µM
- GI50 (HOP-62 NSCLC): 3.3 µM
- TGI (HOP-62 NSCLC): 14 µM
- GI50 (OVCAR-3 ovarian): 2530 nM
- TGI (OVCAR-3 ovarian): 7.3 µM
- GI50 (MOLT-4 leukemia): 2610 nM
- TGI (MOLT-4 leukemia): 6.07 µM
- GI50 (HCC-2998 colon): 1940 nM
- TGI (HCC-2998 colon): 3.92 µM
- GI50 (SF-295 CNS): 3.6 µM
- TGI (SF-295 CNS): 13.1 µM
- GI50 (HOP-92 NSCLC): 2680 nM
- TGI (HOP-92 NSCLC): 9.17 µM
- GI50 (MCF7 breast): 2580 nM
- TGI (MCF7 breast): 10.8 µM
- GI50 (RPMI-8226 leukemia): 2990 nM
- TGI (RPMI-8226 leukemia): 7.49 µM
- GI50 (HT29 colon): 2890 nM
- TGI (HT29 colon): 8.05 µM
- GI50 (UACC-62 melanoma): 3.11 µM
- TGI (UACC-62 melanoma): 10.1 µM
- GI50 (HL-60(TB) leukemia): 2750 nM
- TGI (HL-60(TB) leukemia): 6.43 µM
- GI50 (TK-10 renal): 9.17 µM
- TGI (TK-10 renal): 22.5 µM
- GI50 (OVCAR-5 ovarian): 1930 nM
- TGI (OVCAR-5 ovarian): 5.59 µM
- GI50 (NCI-H460 lung): 2620 nM
- TGI (NCI-H460 lung): 6.55 µM
